Measurements: patent publication US5420335A, “Parenteral nutrients based on watersoluble glycerol bisacetoacetates” (priority 1993, dated 1995)
“And” between values parts separate entries of the source, which are not always exact repeats. Equal entries are not always repeated. “Also recorded” adds a separate entry of the source.

Columns and labels:
[1] = Overall evaluation as a parenteral nutrient; format: in vivo, rat (male Sprague-Dawley); conditions: in words
Method: (§1) Water was available ad libitum at all times.
(§2) The vein was then ligated dorsally to the catheter. […] Body weights were measured daily.
(§3) Infusate volume, oral food intake, body weight and urinary volume and total nitrogen were monitored daily for each rat. Infusate volume and food intake were determined by weighing the appropriate container at the start and end of each 24 hr. period. Measurements were recorded between 9 and 10 AM each day. At the end of the 7th day, rats were sacrificed, and blood and liver were harvested. Plasma was separated for measurement of free fatty acids, glucose, and ketone bodies. Liver was weighed and a sample was fixed in buffered formalin for gross histology.
(§4) The data were analyzed for significance by the one-way analysis of variance with repeated measures and comparing the effect of dietary treatment on each day. […] The null hypothesis was concluded invalid if p≤0.05. The analysis of variance was computed on a SAS statistical package.

[2] = Plasma free fatty acids, glucose and ketone bodies after 7 days of infusion; format: in vivo, rat (male Sprague-Dawley); conditions: for ACAC / BOHB / Glucose / Total FFA: Table 11, Example 4
Method: as §3, §4

[3] = Liver weight after 7 days of infusion; format: in vivo, rat (male Sprague-Dawley); conditions: Table 11, Example 4; for Liver/100 GM: as percentage of body weight; for Liver Wt.: end of day 7
Method: as §3
(§5) The data were analyzed for significance by the one-way analysis of variance with repeated measures and comparing the effect of dietary treatment on each day. […] The null hypothesis was concluded invalid if p≤0.05. The analysis of variance was computed on a SAS statistical package. […]

[4] = Nitrogen balance (difference between intake and urinary output); format: in vivo, rat (male Sprague-Dawley); conditions: for Nitrogen Balance, Difference Between Intake And Output: average of 9 rats
Method: as §1, §2, §3, §4
FIG. 3 illustrates the difference between oral intake and urinary nitrogen output which is termed nitrogen balance. It is representative of nitrogen balance because urinary nitrogen is the major route for body loss of nitrogen.
The experimental compound contains 8% nitrogen. With an infusion of 5.6 grams/day, infused nitrogen would provide approximately 450 mg more than that listed in the data tables. The final balance figures includes this number which is calculated based on the actual daily infusion rate for each rat.

[5] = Mortality and gross toxicity on intravenous infusion; conditions: in words; conclusion
Method: as §1, §2

[6] = Oral dietary nitrogen (food) intake of intravenously infused rats; format: in vivo, rat (male Sprague-Dawley); conditions: in words
Method: as §1, §2, §3, §4
(§6) This compound has an estimated energy density of 4.86 kcal/gram based on thermodynamic data from similar compounds.

[7] = Daily urinary nitrogen losses of intravenously infused rats; format: in vivo, rat (male Sprague-Dawley); conditions: for Urinary Nitrogen: Table 8, Example 4
Method: as §1, §2, §3, §5

[8] = Oral dietary nitrogen (food) intake of intravenously infused rats; format: in vivo, rat (male Sprague-Dawley); conditions: Table 7, Example 4, oral only
[9] = Daily body weight of intravenously infused rats; format: in vivo, rat (male Sprague-Dawley); conditions: for Daily Body Weight: Table 10, Example 4
Method: as §1, §2, §3, §4, §6

Compound: CC(=O)CC(=O)NCC(O)CO (centres unmarked) [Compound 2, 1-acetoacetamido-2,3-propane diol]
- efficacy as parenteral nutrient / energy source [1]: not a good source of energy
- efficacy as parenteral nutrient / energy source ([1]; listed as 1-acetoacetamido-2,3-propane diol): ineffective as parenteral nutrients
- ACAC ([2]; plasma, average): 0.195 mmol/L
- BOHB ([2]; plasma, average): 0.897 mmol/L
- Glucose ([2]; plasma, average): 108.589 mg/dL
- Total FFA ([2]; plasma, average): 0.580 mmol/L
- ACAC ([2]; plasma, individual rat): 0.0958 mmol/L and 0.1231 mmol/L and 0.1385 mmol/L and 0.1032 mmol/L and 0.3378 mmol/L and 0.0999 mmol/L and 0.3415 mmol/L and 0.3225 mmol/L
- BOHB ([2]; plasma, individual rat): 0.8481 mmol/L and 0.9004 mmol/L and 0.2501 mmol/L and 1.13 mmol/L and 0.8685 mmol/L and 1.3611 mmol/L and 0.5709 mmol/L and 1.163 mmol/L and 0.9826 mmol/L
- Glucose ([2]; plasma, individual rat): 109.8 mg/dL and 105.2 mg/dL and 112.1 mg/dL and 111.4 mg/dL and 121 mg/dL and 91.1 mg/dL and 132.1 mg/dL and 114.6 mg/dL and 80 mg/dL
- Total FFA ([2]; plasma, individual rat): 0.306 mmol/L and 0.472 mmol/L and 0.376 mmol/L and 1.408 mmol/L and 0.546 mmol/L and 0.651 mmol/L and 0.286 mmol/L and 0.676 mmol/L and 0.498 mmol/L
- blood / plasma glucose ([2]; in words, end of day 7): low blood glucose
- ketone bodies ([2]; in words, plasma, end of day 7): absence of elevated plasma acetoacetate; also recorded: neither of the ketone bodies were elevated when compared to the saline infused rats
- Liver/100 GM ([3]; average): 3.891
- Liver/100 GM ([3]; individual rat): 3.621 and 5.165 and 3.928 and 3.739 and 4.018 and 3.066 and 4.304 and 3.228 and 3.95
- Liver Wt. ([3]; average): 8.842
- Liver Wt. ([3]; individual rat): 9.0537 and 11.2604 and 9.1128 and 7.3291 and 9.3228 and 7.2672 and 9.4265 and 7.4879 and 9.3213
- Nitrogen Balance, Difference Between Intake And Output ([4]; Table 9, Example 4, infused nitrogen not considered, day 1): -198 mg N
- Nitrogen Balance, Difference Between Intake And Output ([4]; Table 9, Example 4, infused nitrogen not considered, day 2): -173 mg N
- Nitrogen Balance, Difference Between Intake And Output ([4]; Table 9, Example 4, infused nitrogen not considered, day 3): -146 mg N
- Nitrogen Balance, Difference Between Intake And Output ([4]; Table 9, Example 4, infused nitrogen not considered, day 4): -142 mg N
- Nitrogen Balance, Difference Between Intake And Output ([4]; Table 9, Example 4, infused nitrogen not considered, day 5): -109 mg N
- Nitrogen Balance, Difference Between Intake And Output ([4]; Table 9, Example 4, infused nitrogen not considered, day 6): -114 mg N
- Nitrogen Balance, Difference Between Intake And Output ([4]; Table 9, Example 4, infused nitrogen not considered, day 7): -101 mg N
- Nitrogen Balance, Difference Between Intake And Output ([4]; Table 9A, Example 4, infused nitrogen included, day 1): 256 mg N
- Nitrogen Balance, Difference Between Intake And Output ([4]; Table 9A, Example 4, infused nitrogen included, day 2): 258 mg N
- Nitrogen Balance, Difference Between Intake And Output ([4]; Table 9A, Example 4, infused nitrogen included, day 3): 361 mg N
- Nitrogen Balance, Difference Between Intake And Output ([4]; Table 9A, Example 4, infused nitrogen included, day 4): 302 mg N
- Nitrogen Balance, Difference Between Intake And Output ([4]; Table 9A, Example 4, infused nitrogen included, day 5): 317 mg N
- Nitrogen Balance, Difference Between Intake And Output ([4]; Table 9A, Example 4, infused nitrogen included, day 6): 299 mg N
- Nitrogen Balance, Difference Between Intake And Output ([4]; Table 9A, Example 4, infused nitrogen included, day 7): 336 mg N
- nitrogen balance ([4]; in words, 7 days): negative nitrogen balance if nitrogen content of the compound is not considered
- lethality [5]: not acutely nor chronically lethal
- appetite depression ([6]; Example 4): did not depress the rats appetite
- differences in dietary nitrogen intake among the three groups ([6]; vs saline and other groups, 7 days): no differences in dietary nitrogen intake among the three groups
- Urinary Nitrogen ([7]; day 1, average of 9 rats): 477 mg
- Urinary Nitrogen ([7]; day 1, individual rat): 562.1 mg and 483.2 mg and 380.8 mg and 411.4 mg and 401.7 mg and 527.6 mg and 477.8 mg and 509.6 mg and 536.4 mg
- Urinary Nitrogen ([7]; day 2, average of 9 rats): 550 mg
- Urinary Nitrogen ([7]; day 2, individual rat): 661.5 mg and 542.5 mg and 499.8 mg and 464 mg and 462.84 mg and 583.3 mg and 486 mg and 528 mg and 718.2 mg
- Urinary Nitrogen ([7]; day 3, average of 9 rats): 576 mg
- Urinary Nitrogen ([7]; day 3, individual rat): 671.9 mg and 704.1 mg and 548.1 mg and 413.8 mg and 619.3 mg and 603.8 mg and 315.2 mg and 622.2 mg and 682.4 mg
- Urinary Nitrogen ([7]; day 4, average of 9 rats): 531 mg
- Urinary Nitrogen ([7]; day 4, individual rat): 559.8 mg and 477.4 mg and 468.3 mg and 385 mg and 499.7 mg and 603.7 mg and 494.3 mg and 614.8 mg and 674.2 mg
- Urinary Nitrogen ([7]; day 5, average of 9 rats): 479 mg
- Urinary Nitrogen ([7]; day 5, individual rat): 599 mg and 456 mg and 434.3 mg and 300.2 mg and 365.9 mg and 503.5 mg and 525.1 mg and 552.9 mg and 572.3 mg
- Urinary Nitrogen ([7]; day 6, average of 9 rats): 548 mg
- Urinary Nitrogen ([7]; day 6, individual rat): 569 mg and 659.4 mg and 440.8 mg and 286.1 mg and 545.2 mg and 538.5 mg and 608.2 mg and 599 mg and 686.7 mg
- Urinary Nitrogen ([7]; day 7, average of 9 rats): 567 mg
- Urinary Nitrogen ([7]; day 7, individual rat): 602 mg and 613.5 mg and 519.4 mg and 81.4 mg and 588.3 mg and 633.1 mg and 678 mg and 683.9 mg and 706.8 mg
- urinary nitrogen losses ([7]; in words, 7 days): reflects the greater nitrogen intake by rats infused with the experimental compound
- Dietary Nitrogen Intake ([8]; day 1, average of 9 rats): 279 MG N
- Dietary Nitrogen Intake ([8]; day 1, individual rat): 513.24 MG N and 92.12 MG N and 164.5 MG N and 138.18 MG N and 171.08 MG N and 493.5 MG N and 440.86 MG N and 355.32 MG N
- Dietary Nitrogen Intake ([8]; day 2, average of 9 rats): 376 MG N
- Dietary Nitrogen Intake ([8]; day 2, individual rat): 532.98 MG N and 256.62 MG N and 526.4 MG N and 59.22 MG N and 282.94 MG N and 506.66 MG N and 263.2 MG N and 447.44 MG N
- Dietary Nitrogen Intake ([8]; day 3, average of 9 rats): 429 MG N
- Dietary Nitrogen Intake ([8]; day 3, individual rat): 532.98 MG N and 407.96 MG N and 546.14 MG N and 118.44 MG N and 506.66 MG N and 500.08 MG N and 210.56 MG N and 513.24 MG N and 526.4 MG N
- Dietary Nitrogen Intake ([8]; day 4, average of 9 rats): 388 MG N
- Dietary Nitrogen Intake ([8]; day 4, individual rat): 480.34 MG N and 263.2 MG N and 473.76 MG N and 65.8 MG N and 296.1 MG N and 519.82 MG N and 355.32 MG N
- Dietary Nitrogen Intake ([8]; day 5, average of 9 rats): 369 MG N
- Dietary Nitrogen Intake ([8]; day 5, individual rat): 480.34 MG N and 427.7 MG N and 355.32 MG N and 0 MG N and 52.64 MG N and 500.08 MG N and 519.82 MG N and 506.66 MG N
- Dietary Nitrogen Intake ([8]; day 6, average of 9 rats): 434 MG N
- Dietary Nitrogen Intake ([8]; day 6, individual rat): 526.4 MG N and 421.12 MG N and 388.22 MG N and 0 MG N and 519.82 MG N and 500.08 MG N and 513.24 MG N and 506.66 MG N
- Dietary Nitrogen Intake ([8]; day 7, average of 9 rats): 466 MG N
- Dietary Nitrogen Intake ([8]; day 7, individual rat): 526.4 MG N and 546.14 MG N and 506.66 MG N and 0 MG N and 532.98 MG N and 519.82 MG N
- Daily Body Weight ([9]; day 0, average of 9 rats): 244 Grams
- Daily Body Weight ([9]; day 0, individual rat): 247 Grams and 223 Grams and 252 Grams and 251 Grams and 259 Grams and 236 Grams and 243 Grams and 237 Grams
- Daily Body Weight ([9]; day 1, average of 9 rats): 234 Grams
- Daily Body Weight ([9]; day 1, individual rat): 243 Grams and 207 Grams and 240 Grams and 230 Grams and 244 Grams and 242 Grams and 227 Grams and 239 Grams and 237 Grams
- Daily Body Weight ([9]; day 2, average of 9 rats): 234 Grams
- Daily Body Weight ([9]; day 2, individual rat): 247 Grams and 205 Grams and 239 Grams and 227 Grams and 243 Grams and 230 Grams and 235 Grams and 237 Grams
- Daily Body Weight ([9]; day 3, average of 9 rats): 234 Grams
- Daily Body Weight ([9]; day 3, individual rat): 251 Grams and 204 Grams and 238 Grams and 223 Grams and 240 Grams and 243 Grams and 235 Grams and 233 Grams
- Daily Body Weight ([9]; day 4, average of 9 rats): 233 Grams
- Daily Body Weight ([9]; day 4, individual rat): 255 Grams and 199 Grams and 234 Grams and 208 Grams and 235 Grams and 233 Grams and 244 Grams
- Daily Body Weight ([9]; day 5, average of 9 rats): 236 Grams
- Daily Body Weight ([9]; day 5, individual rat): 253 Grams and 246 Grams and 234 Grams and 212 Grams and 230 Grams and 241 Grams and 236 Grams and 237 Grams
- Daily Body Weight ([9]; day 6, average of 9 rats): 235 Grams
- Daily Body Weight ([9]; day 6, individual rat): 251 Grams and 242 Grams and 233 Grams and 204 Grams and 243 Grams and 248 Grams and 232 Grams and 231 Grams
- Daily Body Weight ([9]; day 7, average of 9 rats): 228 Grams
- Daily Body Weight ([9]; day 7, individual rat): 250 Grams and 218 Grams and 232 Grams and 196 Grams and 237 Grams and 219 Grams and 236 Grams
- change in body weight ([9]; in words, 7 days): held relatively constant until the final day when they lose weight; also recorded: did not lose weight nor did they gain
